Test results from patent publication US20240197712A1, “TGF-BETA INHIBITION FOR IMMUNODEFICIENCY VIRUS REACTIVATION FROM LATENCY, ENHANCEMENT OF IMMUNODEFICIENCY VIRUS-SPECIFIC RESPONSES AND IMMUNODEFICIENCY VIRUS CURE” (Northwestern University, priority 2022, published 2024).

Assays:
U1 cells [1] = assay: DC-driven HIV reactivation from U1 cells (moDC co-culture); assay type: cell-based; settings: moDCs treated with TGF-β1 10 ng/ml for last 2 days, with or without galunisertib; 18 hrs co-culture
Protocol: CD14^+ cells were isolated from PBMC using the Miltenyi CD14^+ beads. Monocyte-derived DCs (moDCs) were obtained from CD14+ cells cultured in GM-CSF and IL-4 as previously described (55). At day 4 of moDCs differentiation, TGF-β1 (10 ng/ml R&D systems) was added to the moDCs to generate the TGF-β-DCs (or both TGF-β1 and galunisertib). At day 6, 2 days after TGF-1 addition, moDCs were phenotyped (in 3 donors; See Table 2 for antibodies list) and co-cultured with eFluor670 (eBioscience)-labelled U1 at 3:1 U1:DC ratio (5 donors). After 18 hrs of co-culture, cells were stained for p24 intracellularly as described above.

SIVmac251 or SIVmac239 = assay: Tissue cell-associated vRNA/vDNA, colorectal biopsies and LN FNA; assay type: in vivo, rhesus macaques
Protocol: Blood was collected in EDTA tubes and plasma was separated by density gradient centrifugation and used for the determination of plasma VL by SIVgag qRT-PCR at NIRC or at Leidos (Quantitative Molecular Diagnostics Core, AIDS and Cancer Virus Program Frederick National Laboratory). Tissue VL from snap frozen colorectal biopsies and LN FNA were performed at Leidos (A14X004, A14X005 and A14X013) as described in (78) or, for the remaining macaques and from PBMC of all macaques they were performed as described in (77).

U1 cells [2] = assay: PMA-induced HIV reactivation in U1 cells, intracellular p24 staining; assay type: cell-based
Protocol: ACH2 cells and U1 cells were obtained through the NIH HIV Reagent Program, Division of AIDS, NIAID, NIH (contributed by Dr. Thomas Folks). Cells ([…]) were cultured in triplicates in RPMI with 10% FBS and Pen/Strep in presence of TGF-β1 (10 ng/ml R&D systems), TGF-β1 and galunisertib (1 μM MedChemExpress), galunisertib alone or mock treated. In the HIV latency reactivation conditions, PMA (Phorbol 12-myristate 13-acetate, SigmaAldrich) was added at 100 ng/ml together with galunisertib or TGF-β1. After 18 hrs, cells were stained intracellularly for p24 using the KC57 antibody (NIH HIV Reagent Program) as previously described (74).

SIV-env = assay: Anti-envelope antibody titers (ELISA); assay type: in vivo, rhesus macaques; settings: in 3 of the 7 macaques
Protocol: 96-well plates were coated with the SIV gp130 Recombinant protein 595 (AIDS reagents program, Division of AIDS, NIAID, NIH at 1 μg/ml in coating carbonate buffer 2 hours at room temperature (RT). After washing the plates 4 times with washing buffer, the plates were incubated in blocking buffer (2% BSA in PBS) overnight. Plates were washed and dilutions of test sera or control sera were added to the plate starting at 1:50. Sera were incubated at 37° C. for 30′ and plate washed and detected with anti-Rhesus IgG HRP (NHPRR) 30′ at 37° C. After washing and substrate incubation at RT for 30′ plates were read at 450/650 nm.

pSMAD2/3 = assay: PhosphoSMAD2/3 over total SMAD2/3 in PBMC (ELISA); assay type: in vivo, rhesus macaques; settings: 2.5 or 5 mg/kg twice daily, 9 days
Protocol: Eight naïve macaques (FIG. 9) were used to collect plasma and PBMC for PK/PD studies. 4 macaques received galunisertib (2.5 mg/kg, n=2 or 5 mg/kg, n=2) once and blood was collected at 1 hr, 3 hr and 6 hrs, 24 hrs and 48 hrs. 4 macaques received galunisertib (2.5 mg/kg, n=2 or 5 mg/kg, n=2) twice daily for 9 days and samples were collected 1 hr, 3 hr and 8 hrs after administration on day 1 and on day 9 right before and 1 hr and 3 and 6 hrs after the last administration. Plasma concentrations of galunisertib were measured by IMSERC (Integrated Molecular Structure Education and Research Center) utilizing liquid chromatography mass spectrometry (Shimadzu Kyoto, Japan ultra-high performance liquid chromatography—UHPLC—system and SCIEX Framingham, MA Qtrap 6500+ triple quadrupole mass spectrometer). […] All samples and standards were processed in duplicate with the average area under the curve (AUC) being used for quantitation reporting. […] The resulting limit of quantitation (LOQ) was 1.0 ng/ml.
For PD studies, the levels of phosphorylated SMAD2/3 were measured using the PathScan PhospoSMAD2/3 ELISA kit (Cell Signaling Technology, CST) over the levels of Total SMAD2/3 in cell lysates Total SMAD ELISA Kit (Cell Signaling Technology, CST) normalized on protein content.

HIV-Bal = assay: In vitro HIV-1 replication in SupT1 cells and PHA-PBMC (p24 ELISA); assay type: cell-based; settings: SupT1 cells and PBMC from healthy donors, different concentrations of galunisertib
Protocol: For control experiments of the impact of galunisertib on HIV infection of SupT1 cells and PBMC, SupT1 cells and PHA-activated PBMC were cultured respectively at 1 and 2 millions/ml in R10 (in presence of 20 U/ml of IL-2 for the PBMC) and infected with 50 TCID50/10^6 cells of HIV-Bal (0.01 MOI). HIV replication was monitored by p24 ELISA.

TGF-β = assay: Total TGF-β in plasma by ELISA; assay type: in vivo, rhesus macaques; settings: baseline vs W1/2
Text: FIGS. 16A-16B. […] (FIG. 16A) The concentration of total TGF-β in the plasma before and after galunisertib as detected by ELISA is shown. Wilcoxon matched-pairs test was used to compare BL with W1/2 data, Significant p-value of α<0.05 (*) is shown. (FIG. 16B) No correlation is present between the concentration of TGF-β before treatment in blood and the change in Gut-SUVTot in each animal after galunisertib treatment (p=0.199; Person R=0.304).

For `Cc1cccc(-c2nn3c(c2-c2ccnc4ccc(C(N)=O)cc24)CCC3)n1` [galunisertib, Galunisertib], the “frequency of p24-gag+ U1 cells in cocultures with TGF-β1-treated DCs versus untreated DCs” value (U1 cells [1]) was “blocked”, the “ratio CA-RNA/DNA” value (SIVmac251 or SIVmac239; at least 2 macaques (A14X027 and A14X064)) was “increased substantially” and the “increase in cell associated vRNA (CA-RNA)” value (SIVmac251 or SIVmac239; colorectal biopsies and LN FNA, before vs after treatment) was 1 to 3 log. The “frequency of p24-gag+ cells in unstimulated cultures” value (U1 cells [2]; U1 cells, no PMA, TGF-β1 10 ng/ml or galunisertib 1 μM alone) was “slightly increase”, the “frequency of p24-gag+ cells in the presence of exogenous TGF-β1” value (U1 cells [2]; U1 cells, TGF-β1 10 ng/ml + galunisertib 1 μM, with or without PMA) was “restores the frequency of p24-gag+ cells” and the “frequency of p24-gag+ cells in PMA-stimulated U1 cells” value (U1 cells [2]; galunisertib 1 μM alone, PMA 100 ng/ml) was “no impact”. The “increase in the titer of SIV-env specific antibodies” value (SIV-env) was 0.5 to 1 Log, the “reduction in pSMAD2/3 over total SMAD in PBMC” value (pSMAD2/3) was about 25% and the HIV-1 growth curves (HIV-Bal) was “no impact”. For the same molecule, the “levels of TGF-β in blood after treatment” value (TGF-β) was “increases in the levels of TGF-β”.
